Reference: ChEMBL document CHEMBL2406917, “Phaeolschidins A-E, five hispidin derivatives with antioxidant activity from the fruiting body of Phaeolus schweinitzii collected in the Tibetan Plateau” (J Nat Prod, 2013)
The source made the active and inactive calls. No cut-off for these calls is given here.

How the values were obtained:
[1] = system: Liver; assay: Antioxidant activity against Fe2+/ascorbic acid-induced lipid peroxidation in mouse liver homogenates assessed as total MDA level at 200 uM after 1.5 hrs; format: functional, tissue-based
[2] = Total antioxidant capacity of the compound at 200 uM relative to control; format: physicochemical
[3] = system: Radical scavenging activity; assay: Antioxidant activity assessed as DPPH free radical scavenging activity after 30 mins; format: functional
[4] = Total antioxidant capacity of the compound at 25 uM relative to control; format: physicochemical
[5] = system: Liver; assay: Antioxidant activity against Fe2+/ascorbic acid-induced lipid peroxidation in mouse liver homogenates after 1.5 hrs; format: functional, tissue-based
[6] = system: HCT-116; assay: Cytotoxicity against human HCT116 cells up to 200 uM by MTT assay; format: cell-based
[7] = system: SW480; assay: Cytotoxicity against human SW480 cells up to 200 uM by MTT assay; format: cell-based
[8] = Total antioxidant capacity of the compound at 100 uM relative to control; format: physicochemical
[9] = Total antioxidant capacity of the compound at 50 uM relative to control; format: physicochemical

With `CC(c1c(O)cc(/C=C/c2ccc(O)c(O)c2)oc1=O)c1c(O)cc(/C=C/c2ccc(O)c(O)c2)oc1=O` [PINILLIDINE] the Activity [1] was “Active”, the TAC [2] was 5.16 U and the IC50 [3] was greater than 200 µM. The TAC [4] was 2.02 U, the IC50 [5] was greater than 200 µM and the Activity [6] was “Non-toxic”. For the same molecule, the Activity [7] was “Non-toxic”, the TAC [8] was 3.46 U and the TAC [9] was 2.67 U.

In the case of `O=C1CC(c2c(O)cc(/C=C/c3ccc(O)c(O)c3)oc2=O)CN1` (stereo unspecified), the TAC [2] is reported as 6.91 U, the IC50 [3] is reported as greater than 200 µM and the TAC [4] is reported as 2.41 U. For the same molecule, the Activity [6] was “Non-toxic”, the Activity [7] was “Non-toxic” and the TAC [8] was 4.24 U. For the same molecule, the TAC [9] was 2.78 U.

`COC(=O)CCC(c1c(O)cc(/C=C/c2ccc(O)c(O)c2)oc1=O)c1c(O)cc(/C=C/c2ccc(O)c(O)c2)oc1=O` gave a TAC [2] of 11.06 U, an IC50 [3] of 95.3 µM and a TAC [4] of 3 U. The Activity [6] was “Non-toxic”, the Activity [7] was “Non-toxic” and the TAC [8] was 6.5 U. The TAC [9] was 3.4 U.

Work on `O=C(O)CCC(c1c(O)cc(/C=C/c2ccc(O)c(O)c2)oc1=O)c1c(O)cc(/C=C/c2ccc(O)c(O)c2)oc1=O` yielded a TAC [2] of 10.74 U, an IC50 [3] of 88.7 µM and a TAC [4] of 6.82 U. For the same molecule, the Activity [6] was “Non-toxic”, the Activity [7] was “Non-toxic” and the TAC [8] was 9.74 U. The TAC [9] was 8.41 U.

With `CC(C)CC(c1c(O)cc(/C=C/c2ccc(O)c(O)c2)oc1=O)c1c(O)cc(/C=C/c2ccc(O)c(O)c2)oc1=O` the Activity [1] was “Active”, the TAC [2] was 10.81 U and the IC50 [3] was 95.9 µM. For the same molecule, the TAC [4] was 3.61 U, the IC50 [5] was greater than 200 µM and the Activity [6] was “Non-toxic”. The Activity [7] was “Non-toxic”, the TAC [8] was 7.6 U and the TAC [9] was 5.28 U.

In the case of `CC(C)C(c1c(O)cc(/C=C/c2ccc(O)c(O)c2)oc1=O)c1c(O)cc(/C=C/c2ccc(O)c(O)c2)oc1=O`, the Activity [1] is reported as “Active”, the TAC [2] is reported as 5.39 U and the IC50 [3] is reported as greater than 200 µM. For the same molecule, the TAC [4] was 2.1 U, the IC50 [5] was greater than 200 µM and the Activity [6] was “Non-toxic”. The Activity [7] was “Non-toxic”, the TAC [8] was 4.8 U and the TAC [9] was 2.88 U.

Work on `O=C1O[C@H]([C@@H](O)CO)C(O)=C1O` [ASCORBIC ACID] yielded a TAC [2] of 21.68 U, a TAC [4] of 17.33 U and a TAC [8] of 18.97 U. The TAC [9] was 17.42 U.

In the case of `O=c1cc(O)cc(/C=C/c2ccc(O)c(O)c2)o1` [HISPIDIN], the Activity [1] is reported as “Active”, the TAC [2] is reported as 10.25 U and the IC50 [3] is reported as 58.8 µM. The TAC [4] was 5.83 U, the IC50 [5] was greater than 200 µM and the Activity [6] was “Non-toxic”. For the same molecule, the Activity [7] was “Non-toxic”, the TAC [8] was 10.03 U and the TAC [9] was 9.27 U.
